Data published in patent publication US9618511B2, “Methods and compositions for treating alzheimer's disease” (Eleanore Bennett Charitable Trust #2, priority 2008, dated 2017).
Where two headings read alike, the source gives them in different places.

Key:
[1] = system: PDK-dependent activation of Akt1; assay: In vitro PDK-dependent Akt1 phosphorylation and activity assay (immunoprecipitated PDK1 and Akt1, GSK-3 fusion protein substrate); type: biochemical, human (SH-SY5Y, HEK293), mouse (C2C12); conditions: for IC50: in vitro Aβ conditions; for Ki: monomeric-predominant preparations
Method: (§1) Akt1 was immunoprecipitated (IP) overnight from 100 μg of the human brain sample or from C2C12 myotubes infected with adenovirus encoding Aβ using a 1:100 dilution of goat anti-Akt1 antibody. The following morning, 40 μl of a 50% slurry of protein G-Agarose (PGA) (Roche Applied Science) was added for an additional 1.5 hours. The beads were washed twice with wash buffer [1× phosphate buffered saline (PBS), 0.5% NP-40, 0.1 mM Na3VO4] and twice with kinase buffer [25 mM Tris (pH 7.5), 2 mM DTT, 0.1 mM Na3VO4, 10 mM MgCl2]. ATP (200 μM) and GSK-3 fusion protein (1 μg/50 μl) were added in the presence of kinase buffer, and the final reaction (50 μl) was incubated 30 minutes at 30° C. The reaction was stopped by adding 40 μl of Laemmli buffer. 20 μl of sample was loaded onto a 10% polyacrylamide gel for fractionation and western detection development.
Immunoprecipitates (IPs) of PDK1 and Akt were prepared from 100 μg of either SH-SY5Y, C2C12 myotubes or from insulin-treated cultures. ATP (200 μM), GSK-3 fusion protein (1 μg/50 μl) and kinase buffer were added to the reaction. Various Aβ peptides were finally added at 0.01, 0.1, 1, 5, 10, 20 μM. Akt activity level was otherwise determined as above.

pre-activated Akt1 = target: T1, pre-activated Akt1 (Mus musculus, UniProt P31750); assay: In vitro kinase assay on pre-activated (insulin-conditioned) Akt1; type: biochemical, mouse (C2C12 myotubes); conditions: 10 μM peptide
T1 construct: Akt1 was immunoprecipitated from control and insulin treated C2C12 myotubes for in vitro kinase assay; endogenous in cells; host or cells: insulin-treated mouse C2C12 myotubes
Method: as §1
Variably however, the degree of inhibition sometimes exceeded the baseline activity in the absence of PDK. Thus, it is possible that Aβ may have an additional action to deactivate Akt. […] Insulin stimulated Akt activity in extracts made from C2C12myotube cultures (FIG. 9A, 3rd row, lane 2 vs. 1). […]
In FIG. 9B Aβ42 (10 μM) and scrambled Aβ42 had no effect on insulin-conditioned Akt1 activity. Protein phosphatase 2A (PP2A; 5 μg/ml) decreased levels of both p-Akt (Ser473) and Akt activity (p-GSK-3 α/β), quantified by densitometry below.

Rictor-stimulated Akt1 = target: T2, Rictor-stimulated Akt1; assay: Rictor-dependent Akt1 activity, in vitro kinase assay; type: biochemical, mouse (C2C12 myotubes); conditions: 10 μM
T2 construct: endogenous in cells; host or cells: Rictor from insulin-treated C2C12 myotubes
Excerpt: Another kinase, termed SGK (serum/glucocorticoid regulated kinase), is also activated by PDK. Similar to Akt, SGK has a PH domain and phosphorylates GSK-3 α/β (Kobayashi, T., Deak, M., Morrice, N., and Cohen, P., 1999, Characterization of the structure and regulation of two novel isoforms of serum- and glucocorticoid-induced protein kinase, Biochem J 344 Pt 1:189-197, and Tessier, M., and Woodgett, J. R., 2006, Serum and glucocorticoid-regulated protein kinases: variations on a theme, J Cell Biochem 98:1391-1407). If Aβ inhibits PH-mediated activations of Akt independent of PIP3, it is predicted to affect this mechanism too. Indeed, in FIG. 7D, ADDL-containing Aβ preparations inhibited PDK-stimulated SGK activity (lane 7 vs. 6 and 5). […] This enhanced activity was not however, interrupted by Aβ (10 μM, lane 4 vs. 3). Lastly, another kinase that converges to phosphorylate GSK, PKA (Grimes, C. A., and Jope, R. S., 2001, The multifaceted roles of glycogen synthase kinase 3beta in cellular signaling, Prog Neurobiol 65:391-426; Li, M., Wang, X., Meintzer, M. K., Laessig, T., Birnbaum, M. J., and Heidenreich, K. A., 2000, Cyclic AMP promotes neuronal survival by phosphorylation of glycogen synthase kinase 3beta, Mol Cell Biol 20:9356-9363), was tested. […] Thus, the mechanism of Aβ inhibition of Akt activation is specific to PDK-like kinases. […]

[2] = FIG. 7A, vs reverse peptide 5 μM

T2 sequence (P31749 whole entry): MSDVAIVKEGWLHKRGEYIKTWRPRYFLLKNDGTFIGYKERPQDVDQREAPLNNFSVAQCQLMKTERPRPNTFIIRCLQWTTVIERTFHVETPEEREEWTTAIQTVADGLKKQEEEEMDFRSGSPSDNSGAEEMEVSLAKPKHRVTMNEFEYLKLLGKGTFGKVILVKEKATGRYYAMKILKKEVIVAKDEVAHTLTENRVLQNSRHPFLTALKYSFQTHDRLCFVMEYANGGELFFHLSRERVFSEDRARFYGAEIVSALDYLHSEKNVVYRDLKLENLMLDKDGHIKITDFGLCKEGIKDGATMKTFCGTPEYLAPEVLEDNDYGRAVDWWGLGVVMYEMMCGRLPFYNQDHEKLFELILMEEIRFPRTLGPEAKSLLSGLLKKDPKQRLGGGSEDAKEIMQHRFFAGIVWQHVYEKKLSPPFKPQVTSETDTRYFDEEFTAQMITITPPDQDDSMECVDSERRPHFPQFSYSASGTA
T1 sequence (P31750 whole entry): as the sequence (P31749 whole entry) above, with S2N, A50S, T100A, K112R, E117T, K389T, G410N, H415D counted along it

With “Aβ42: synthetic 42 amino acid β-amyloid peptide, forward sequence, freshly prepared, predominantly monomeric (BioSource)” the “effect on PDK-stimulated Akt activity (GSK-3 substrate phosphorylation)” value ([1]; 5 μM (or doses up to 5 μM)) was “dramatically inhibited”, the “effect on PDK-stimulated Akt activity / Akt phosphorylation” value ([1]; 10 μM) was “completely abrogated” and the “inhibition of Akt phosphorylation” value ([1]; 10 μM, freshly prepared predominantly monomeric peptide) was “up to 50%”. The “effect on PDK-stimulated Akt activity / Akt phosphorylation” value ([1]; 10 μM, listed as Aβ) was “inhibited”, the “concentrations that significantly inhibit Akt phosphorylation (activation)” value [1, 2] was ≥ 10 µM and the “concentrations that significantly inhibit the stimulation of Akt activity” value [1, 2] was ≥ 5 µM. For the same substance, the “concentration at which Akt activation (pSer473, pThr308) and Akt activity begin to be affected” value ([1]; SH-SY5Y IP kinases, FIG. 6B) was ~1 μM, the IC50 ([1]; FIG. 7A, read-out: PDK-dependent Akt1 phosphorylation (Ki50)) was ~10 µM and the IC50 ([1]; activity assay, FIG. 7A, listed as Aβ, read-out: PDK-dependent Akt1 activation (Ki50)) was ~1 µM. It also gave an IC50 ([1]; activity assay, FIG. 7A, read-out: PDK-dependent Akt1 activation (Ki50)) of 1 µM, a Ki ([1]; read-out: Ki in activity assays) of ~2 µM and a Ki ([1]; read-out: Ki in western blots of p-Akt levels) of ~10 µM. The “PDK stimulation of Akt activity after preincubation and washout” value ([1]; preincubation of both IP kinases, washout before kinase reaction) was “no inhibitory effect”, the “insulin-conditioned Akt1 activity and p-Ser473 levels” value (pre-activated Akt1) was “no effect” and the “Rictor-stimulated Akt1 activity” value (Rictor-stimulated Akt1) was “no change”.
